Data from paper PMC10223877, “Impacts of PEGylation and Glycosylation on the Biological Properties of Host Defense Peptide IDR1018” (Pharmaceutics, 2023).
≈ marks a conversion by molar mass, not a printed value. Ends that are not written are not given here. Peptide text beside a SMILES is read from it. * marks the point of attachment. X1 = CC(=O)N[C@H]1C(*)O[C@H](CO)[C@@H](O)[C@@H]1O; X2 = O=C(CCOCCOCCOCCOCCOCCOCCO)*

Columns and labels:
A. baumannii 5015 [1] = test: MIC, liquid broth inhibition assay; format: cell-based; conditions: planktonic A. baumannii 5015; MHB, ~1 × 10^6 CFU mL^−1, ~18 h, OD600; modal values of three independent experiments
Method: (§1) The MIC was conducted using the liquid broth inhibition assay as previously described. MHB was used as a medium for bacterial growth, and bacteria (either MRSA SAP0017, P. aeruginosa PA14, E. coli ATTC489 or A. baumannii 5015) were suspended at ∼1 × 10^6 CFU mL^−1. The peptide conjugates were incubated with the bacterial cultures at various concentrations for ~18 h prior determination of bacterial growth optical density at 600 nm (OD600). The MIC was defined as the lowest concentration that led to no growth in the wells. All values are modal values of three independent experiments.

E. coli ATTC489 [2] = test: MIC, liquid broth inhibition assay; format: cell-based; conditions: planktonic E. coli ATTC489; MHB, ~1 × 10^6 CFU mL^−1, ~18 h, OD600; modal values of three independent experiments
Method: as §1

P. aeruginosa PA14 [3] = test: MIC, liquid broth inhibition assay; format: cell-based; conditions: planktonic P. aeruginosa PA14; MHB, ~1 × 10^6 CFU mL^−1, ~18 h, OD600; modal values of three independent experiments
Method: as §1

S. aureus MRSA0017 [4] = test: MIC, liquid broth inhibition assay; format: cell-based; conditions: planktonic S. aureus MRSA0017; MHB, ~1 × 10^6 CFU mL^−1, ~18 h, OD600; modal values of three independent experiments
Method: as §1

S. aureus MRSA0017 [5] = test: Biofilm eradication assay (MBEC), preformed biofilms; format: cell-based; conditions: TSB + 1% glucose, viable biofilm cell count, three independent experiments
Text: (§2) A bacterial suspension of 1 × 10^7 CFU mL^−1 was used to establish biofilms prior to treatment with the peptides. Appropriate nutrient media for optimal biofilm formation were used, including TSB supplemented with 1% glucose for MRSA SAP0017, BM2 glucose for P. aeruginosa PA14, and LB media supplemented with 1% glucose for E. coli ATTC489 and A. baumannii 5015. In the crystal violet-based assay, untreated bacterial culture and sterile media were used as positive and negative controls, where the % of biofilm biomass was considered 100 and 0%, respectively. The % of biomass in the treated samples was determined relative to the positive and negative controls. A biofilm eradication assay [17] was also performed, for which the residual viable biofilm cell count (CFU mL^−1) was determined. Experiments were conducted in triplicate, in three independent experiments, and average values were presented with ± standard deviations.

P. aeruginosa PA14 [6] = test: as above; format: cell-based; conditions: BM2 glucose, viable biofilm cell count, three independent experiments
Text: as §2

E. coli ATTC489 [7] = test: as above; format: cell-based; conditions: LB + 1% glucose, viable biofilm cell count, three independent experiments
Text: as §2

A. baumannii 5015 [8] = test: as above; format: cell-based; conditions: preformed A. baumannii 5015 biofilm, LB + 1% glucose; viable biofilm cell count; three independent experiments
Text: as §2

[9] = test system: MRSA SAP0017, P. aeruginosa PA14, E. coli ATTC489, A. baumannii 5015; test: MIC, summary over the strains tested; format: cell-based; conditions: range over the four strains of Table 2
Method: as §1

S. aureus MRSA0017 [10] = test: Biofilm biomass, crystal violet staining assay; format: cell-based; conditions: at 64 µg mL^−1, relative to untreated samples
Text: as §2

[11] = Aggregation assay (turbidity) in sodium citrate or phosphate; format: physicochemical; conditions: sodium citrate and sodium phosphate, 0.1−1000 mM; OD600 relative to sterile water
Method: Solutions of IDR1018 peptide and the conjugates were tested for aggregation in saline (0.9% NaCl), 5% dextrose, and 10% RPMI tissue culture medium at 1 mg mL^−1. The solutions were placed in 96 well plates and sterile water was used as a negative control. The turbidity was determined for each sample as described in earlier reports. Similarly, the conjugates were screened for aggregation in the presence of sodium salts of polyatomic anions (citrate or phosphate) at various strengths (0.1−1000 mM). The % of aggregates was assessed relative to the OD600 of sterile water.

[12] = Aggregation with PBMCs in tissue culture, microscopy; format: physicochemical, human; conditions: 32 μg mL^−1, PBMCs in RPMI, 4 h, 37 °C, 5% CO2, microscopy; triplicate in three independent experiments
Method: Furthermore, isolated peripheral blood mononuclear cells (PBMCs) seeded in 96-well flat-bottom tissue culture plates (Corning Inc., Corning, NY, USA) at a concentration of 2 × 10^6 in RMPI media were treated with the two conjugates at a final concentration of 32 μg mL^−1, incubated for 4 h at 37 °C in 5% CO2, and visualized on a Nikon Eclipse TS100 microscope. Experiments were performed in triplicate in three independent experiments.

MCP-1 = test: Immunomodulatory assay, ELISA of PBMC supernatant; format: cell-based, human; conditions: PBMCs, peptide 8 μg mL^−1 co-treated with 20 ng mL^−1 P. aeruginosa LPS, 24 h
Method: (§3) To evaluate the capacity of the conjugates to modulate the immune system, suspended PBMCs (a final density of 1 × 10^5 cells well^−1) were treated with the conjugates at 8 μg mL^−1 in the presence or absence of 20 ng mL^−1 P. aeruginosa LPS, incubated for 24 h, centrifuged, and then the supernatants were collected to quantifying the levels of monocyte chemoattractant protein 1 (MCP-1), the tumor necrosis factor-alpha (TNFα), and interleukins (IL) IL-1β, IL-10, and the anti-inflammatory IL-1 receptor antagonist (IL-1RA) using specific ELISA assays (ELISA kits, eBioscience, Carlsbad, CA, USA). All experiments were conducted in triplicate in three independent experiments and average values were presented.

IL-1RA = test: Immunomodulatory assay, ELISA of PBMC supernatant; format: cell-based, human; conditions: PBMCs
Method: as §3

IL-1β = test: Immunomodulatory assay, ELISA of PBMC supernatant; format: cell-based, human; conditions: PBMCs, peptide 8 μg mL^−1 co-treated with 20 ng mL^−1 P. aeruginosa LPS, 24 h
Method: as §3

IL-10 = test: Immunomodulatory assay, ELISA of PBMC supernatant; format: cell-based, human; conditions: PBMCs, peptide 8 μg mL^−1 co-treated with 20 ng mL^−1 P. aeruginosa LPS, 24 h
Method: as §3

human PBMCs = test: Immunomodulatory assay, chemokine and cytokine expression overall; format: cell-based
Method: as §3

[13] = at 128 µg mL^−1; LDH release, 24 h, 37 °C, RPMI + 10% FBS; 1% Triton X-100 = 100%
Method: The cytotoxicity of the conjugates was assessed in vitro against PBMCs as described earlier using the lactate dehydrogenase (LDH)-based assay [35]. Blood samples were collected from healthy donors with ethics approval and PBMCs were isolated following our previously reported protocol [35]. The cells were resuspended in RPMI medium supplemented with 10% FBS and seeded in tissue culture-treated plates at a final density of 1 × 10^5 cells well^−1. Subsequently, the cells were treated with the conjugates or IDR1018 and incubated for 24 h at 37 °C in 5% CO2, to determine the LDH release. Triton X-100 (1% final concentration) was used as a toxic (positive) control.

## CC[C@H](C)[C@H](NC(=O)[C@H](CCCNC(=N)N)NC(=O)[C@@H](NC(=O)[C@H](C)NC(=O)[C@@H](NC(=O)[C@@H](NC(=O)[C@H](CC(C)C)NC(=O)[C@H](CCCNC(=N)N)NC(=O)[C@@H](NC(=O)[C@@H](N)[C@@H](C)OC1O[C@H](CO)[C@@H](O)[C@H](O)[C@H]1NC(C)=O)C(C)C)[C@@H](C)CC)C(C)C)C(C)C)C(=O)N[C@@H](Cc1c[nH]c2ccccc12)C(=O)N[C@@H](CCCNC(=N)N)C(=O)N[C@@H](CCCNC(=N)N)C(N)=O (stereo partly drawn) [Glc-IDR1018] (H-T(X1)VRLIVAVRIWRR-NH2)
A. baumannii 5015 [1]
  MIC: 64 µg/mL (≈ 34.8 µM)
E. coli ATTC489 [2]
  MIC: 64 µg/mL (≈ 34.8 µM)
P. aeruginosa PA14 [3]
  MIC: 128 µg/mL (≈ 69.6 µM)
S. aureus MRSA0017 [4]
  MIC: 64 µg/mL (≈ 34.8 µM)
S. aureus MRSA0017 [5]
  MBEC (minimal biofilm eradication concentration): 64 µg/mL
P. aeruginosa PA14 [6]
  MBEC (minimal biofilm eradication concentration): 256 µg/mL
E. coli ATTC489 [7]
  MBEC (minimal biofilm eradication concentration): 128 µg/mL
A. baumannii 5015 [8]
  MBEC (minimal biofilm eradication concentration): 256 µg/mL
[9]
  MICs, range based on the strains tested: 64 to 128 µg/mL
S. aureus MRSA0017 [10]
  biomass reduction: ≥ 90%
[11]
  turbidity in sodium salts of polyatomic anions: no turbidity increase
[12]
  aggregation when incubated with PBMCs in tissue culture: neither peptide conjugate, PEG6-IDR1018, and Glc-IDR1018 showed any obvious sign of aggregation
MCP-1
  MCP1 induction level with LPS stimulation: substantially higher expression values
IL-1RA; peptide 8 μg mL^−1, 24 h, absence of LPS, mean of three independent experiments
  level of IL-1RA induced: 0.8 ng/mL
IL-1RA; peptide 8 μg mL^−1 co-treated with 20 ng mL^−1 P. aeruginosa LPS, 24 h
  IL-1RA induction level with LPS stimulation: substantially higher expression values
IL-1β
  expression of IL-1β with LPS stimulation: significantly suppressed
IL-10
  IL-10 induction level with LPS stimulation: substantially higher expression values
Human PBMCs; peptide 8 μg mL^−1, absence of LPS
  boost of the level of MCP1 and IL-1RA relative to unmodified IDR1018: 2–5 fold
Human PBMCs; peptide 8 μg mL^−1, absence of an LPS stimulant
  ability to modulate chemokine and cytokine expression: significant increase in the expression of the immune mediators relative to unmodified IDR1018

## CC[C@H](C)[C@H](NC(=O)[C@H](CCCNC(=N)N)NC(=O)[C@@H](NC(=O)[C@H](C)NC(=O)[C@@H](NC(=O)[C@@H](NC(=O)[C@H](CC(C)C)NC(=O)[C@H](CCCNC(=N)N)NC(=O)[C@@H](NC(=O)CCOCCOCCOCCOCCOCCOCCO)C(C)C)[C@@H](C)CC)C(C)C)C(C)C)C(=O)N[C@@H](Cc1c[nH]c2ccccc12)C(=O)N[C@@H](CCCNC(=N)N)C(=O)N[C@@H](CCCNC(=N)N)C(N)=O [PEG6-IDR1018] (X2-VRLIVAVRIWRR-NH2)
A. baumannii 5015 [1]
  MIC: 64 µg/mL (≈ 34.2 µM)
E. coli ATTC489 [2]
  MIC: 64 µg/mL (≈ 34.2 µM)
P. aeruginosa PA14 [3]
  MIC: 64 µg/mL (≈ 34.2 µM)
S. aureus MRSA0017 [4]
  MIC: 32 µg/mL (≈ 17.1 µM)
S. aureus MRSA0017 [5]
  MBEC (minimal biofilm eradication concentration): 64 µg/mL
P. aeruginosa PA14 [6]
  MBEC (minimal biofilm eradication concentration): 256 µg/mL
E. coli ATTC489 [7]
  MBEC (minimal biofilm eradication concentration): 128 µg/mL
A. baumannii 5015 [8]
  MBEC (minimal biofilm eradication concentration): 128 µg/mL
[9]
  MICs, range based on the strains tested: 32 to 64 µg/mL

## VRLIVAVRIWRR-NH2 [IDR1018]
A. baumannii 5015 [1]
  MIC: 16 µg/mL
E. coli ATTC489 [2]
  MIC: 16 µg/mL
P. aeruginosa PA14 [3]
  MIC: 16 µg/mL
S. aureus MRSA0017 [4]
  MIC: 16 µg/mL
P. aeruginosa PA14 [6]
  MBEC (minimal biofilm eradication concentration): 16 µg/mL
E. coli ATTC489 [7]
  MBEC (minimal biofilm eradication concentration): 16 µg/mL
A. baumannii 5015 [8]
  MBEC (minimal biofilm eradication concentration): 16 µg/mL
[13]
  cytotoxicity to PBMCs: up to 20%
